Experimental data taken from US11046680B1, “Heteroaryl-substituted triazoles as APJ receptor agonists” (priority 2016, dated 2021).

Target: human APJ receptor (Homo sapiens (Human), UniProt P35414)
Experiment: biochemical
Assay type: biochemical
Conditions: [35S]GTPγS binding, CHO membranes expressing human APJ receptor; read-out: Activity hAPJ SPA EC50 IP
How it was run: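 GTPγS binding on membranes from CHO cells stably expressing FLAG-tagged human APJ, with optimized GDP, MgCl2 and NaCl; incubated 90 min at RT before imaging read-out.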

Sequence of human APJ receptor (P35414 whole entry): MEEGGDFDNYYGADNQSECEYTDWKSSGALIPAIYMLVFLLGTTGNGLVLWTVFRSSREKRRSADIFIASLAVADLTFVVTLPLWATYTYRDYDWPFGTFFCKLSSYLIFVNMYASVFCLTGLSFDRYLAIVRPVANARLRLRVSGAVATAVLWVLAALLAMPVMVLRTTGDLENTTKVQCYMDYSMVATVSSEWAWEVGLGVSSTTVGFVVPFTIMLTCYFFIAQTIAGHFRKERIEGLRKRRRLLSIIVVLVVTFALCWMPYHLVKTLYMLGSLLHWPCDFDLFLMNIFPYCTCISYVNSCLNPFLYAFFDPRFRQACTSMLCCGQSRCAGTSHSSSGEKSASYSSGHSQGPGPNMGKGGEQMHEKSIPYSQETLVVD

`COc1cccc(OC)c1-n1c(NS(=O)(=O)CCc2ccc(F)cc2C#N)nnc1-c1nc(C)cs1` [Example 147.0, 2-(2-Cyano-4-fluorophenyl)-N-(4-(2,6-dimethoxyphenyl)-5-(4-methylthiazol-2-yl)-4H-1,2,4-triazol-3-yl)ethanesulfonamide] was tested, and the EC50 was 1.3 nM.
`CCn1ccc(-c2nnc(NS(=O)(=O)[C@@H](C)[C@H](OC)c3ncc(C)cn3)n2-c2c(OC)cccc2OC)n1` [Example 387.0, (1R,2S)-N-(4-(2,6-Dimethoxyphenyl)-5-(1-ethyl-1H-pyrazol-3-yl)-4H-1,2,4-triazol-3-yl)-1-methoxy-1-(5-methylpyrimidin-2-yl)propane-2-sulfonamide] was tested, and the EC50 was 0.55 nM.
`CCc1onc(-c2nnc(NS(=O)(=O)[C@@H](C)[C@H](OC)c3ncc(Cl)cn3)n2-c2c(OC)cccc2OC)c1C` [Example 519.0] gave an EC50 of 0.32 nM.
For `COc1cccc(OC)c1-n1c(NS(=O)(=O)[C@H](C)Cc2ccc(C#N)cn2)nnc1-c1nc(C)cs1` (single isomer, unassigned) [Example 11.0, (2R)-1-(5-cyano-2-pyridinyl)-N-(4-(2,6-dimethoxyphenyl)-5-(4-methyl-1,3-thiazol-2-yl)-4H-1,2,4-triazol-3-yl)-2-propanesulfonamide or (2S)-1-(5-cyano-2-pyridinyl)-N-(4-(2,6-dimethoxyphenyl)-5-(4-methyl-1,3-thiazol-2-yl)-4H-1,2,4-triazol-3-yl)-2-propanesulfonamide], the EC50 was 0.8 nM.
`COc1cccc(OC)c1-n1c(NS(=O)(=O)CCc2ncc(C)cn2)nnc1-c1nc(C)cs1` [Example 10.0, N-(4-(2,6-dimethoxyphenyl)-5-(4-methyl-1,3-thiazol-2-yl)-4H-1,2,4-triazol-3-yl)-2-(5-methyl-2-pyrimidinyl)ethanesulfonamide] gave an EC50 of 8.4 nM.
`CCS(=O)(=O)Nc1nnc(-c2ccn(C)n2)n1-c1c(OC)cccc1OC` [Example 267.0, N-(4-(2,6-dimethoxyphenyl)-5-(1-methyl-1H-pyrazol-3-yl)-4H-1,2,4-triazol-3-yl)ethanesulfonamide] showed an EC50 of 82 nM.
`COc1cncc(-c2nnc(NS(=O)(=O)[C@@H](C)Cc3ncc(F)cn3)n2-c2c(OC)cccc2OC)n1` (single isomer, unassigned) [Example 188.0, (2S)-N-(4-(2,6-dimethoxyphenyl)-5-(6-methoxy-2-pyrazinyl)-4H-1,2,4-triazol-3-yl)-1-(5-fluoro-2-pyrimidinyl)-2-propanesulfonamide or (2R)-N-(4-(2,6-dimethoxyphenyl)-5-(6-methoxy-2-pyrazinyl)-4H-1,2,4-triazol-3-yl)-1-(5-fluoro-2-pyrimidinyl)-2-propanesulfonamide] gave an EC50 of 15 nM.
In the case of `COc1cccc(OC)c1-n1c(NS(=O)(=O)[C@H](C)[C@H](O)c2ncc(C)cn2)nnc1-c1nc(C)cs1` (single isomer, unassigned) [Example 316.0, (1R,2R)-N-(4-(2,6-dimethoxyphenyl)-5-(4-methylthiazol-2-yl)-4H-1,2,4-triazol-3-yl)-1-hydroxy-1-(5-methylpyrimidin-2-yl)propane-2-sulfonamide or (1S,2S)-N-(4-(2,6-dimethoxyphenyl)-5-(4-methylthiazol-2-yl)-4H-1,2,4-triazol-3-yl)-1-hydroxy-1-(5-methylpyrimidin-2-yl)propane-2-sulfonamide], the EC50 is reported as 81 nM.
Molecule `COc1cccc(OC)c1-n1c(NS(=O)(=O)[C@@H](C)Cc2ncc(C)cn2)nnc1-c1nc(C)cs1` (single isomer, unassigned) [Example 8.0, (2S)-N-(4-(2,6-dimethoxyphenyl)-5-(4-methyl-1,3-thiazol-2-yl)-4H-1,2,4-triazol-3-yl)-1-(5-methyl-2-pyrimidinyl)-2-propanesulfonamide or (2R)-N-(4-(2,6-dimethoxyphenyl)-5-(4-methyl-1,3-thiazol-2-yl)-4H-1,2,4-triazol-3-yl)-1-(5-methyl-2-pyrimidinyl)-2-propanesulfonamide] has an EC50 of 0.75 nM.
`COc1cccc(OC)c1-n1c(NS(=O)(=O)[C@H](C)Cc2ncc(F)cn2)nnc1-c1ccn(C)c1` (single isomer, unassigned) [Example 34.0, (R)-N-(4-(2,6-dimethoxyphenyl)-5-(1-methyl-1H-pyrrol-3-yl)-4H-1,2,4-triazol-3-yl)-1-(5-fluoropyrimidin-2-yl)propane-2-sulfonamide or (S)-N-(4-(2,6-dimethoxyphenyl)-5-(1-methyl-1H-pyrrol-3-yl)-4H-1,2,4-triazol-3-yl)-1-(5-fluoropyrimidin-2-yl)propane-2-sulfonamide] was tested, and the EC50 was 4.5 nM.
`COc1cccc(OC)c1-n1c(NS(=O)(=O)[C@@H](C)[C@H](OC)c2ncc(C)cn2)nnc1-c1nccs1` [Example 341.0, (1R,2S)-N-(4-(2,6-dimethoxyphenyl)-5-(1,3-thiazol-2-yl)-4H-1,2,4-triazol-3-yl)-1-methoxy-1-(5-methyl-2-pyrimidinyl)-2-propanesulfonamide] showed an EC50 of 0.73 nM.
Work on `COc1cccc(OC)c1-n1c(NS(=O)(=O)[C@@H](C)[C@H](OC)c2ncc(C)cn2)nnc1-c1cnn2ccccc12` [Example 415.0, (1R,2S)-N-(4-(2,6-dimethoxyphenyl)-5-(pyrazolo[1,5-a]pyridin-3-yl)-4H-1,2,4-triazo1-3-yl)-1-methoxy-1-(5-methylpyrimidin-2-yl)propane-2-sulfonamide] yielded an EC50 of 5.2 nM.
With `COCC[C@@H]([C@H](C)c1ncc(F)cn1)S(=O)(=O)Nc1nnc(-c2nc(C)cs2)n1-c1c(OC)cccc1OC` (single isomer, unassigned) [Example 21.0] the EC50 was 90 nM.
In the case of `COc1ncnc(OC)c1-n1c(NS(=O)(=O)[C@@H](C)[C@H](OC)c2ncc(C)cn2)nnc1-c1csc(C)n1` [Example 5.0, (1R,2S)-N-(4-(4,6-dimethoxypyrimidin-5-yl)-5-(2-methylthiazol-4-yl)-4H-1,2,4-triazol-3-yl)-1-methoxy-1-(5-methylpyrimidin-2-yl)propane-2-sulfonamide], the EC50 is reported as 4.1 nM.
Work on `COc1cccc(OC)c1-n1c(NS(=O)(=O)[C@@H](C)[C@H](OC)c2ncc(Cl)cn2)nnc1-c1c[nH]c2ncccc12` [Example 419.0, (1R,2S)-1-(5-chloropyrimidin-2-yl)-N-(4-(2,6-dimethoxyphenyl)-5-(1H-pyrrolo[2,3-b]pyridin-3-yl)-4H-1,2,4-triazol-3-yl)-1-methoxypropane-2-sulfonamide] yielded an EC50 of 2.4 nM.
For `COc1cccc(OC)c1-n1c(NS(=O)(=O)[C@H](C)[C@@H](C)c2ncc(C)cn2)nnc1-c1n[nH]c2ccccc12` [Example 431.0, (2R,3S)-N-(4-(2,6-dimethoxyphenyl)-5-(1H-indazol-3-yl)-4H-1,2,4-triazol-3-yl)-3-(5-methylpyrimidin-2-yl)butane-2-sulfonamide], the EC50 was 14 nM.
Molecule `COc1cccc(OC)c1-n1c(NS(=O)(=O)[C@@H](C)[C@H](OC)c2ncc(Cl)cn2)nnc1-c1cc(C)[nH]n1` [Example 344.0, (1R,2S)-1-(5-chloro-2-pyrimidinyl)-N-(4-(2,6-dimethoxyphenyl)-5-(5-methyl-1H-pyrazol-3-yl)-4H-1,2,4-triazol-3-yl)-1-methoxy-2-propanesulfonamide] has an EC50 of 0.63 nM.
For `O=S(=O)(CCc1ccc(Cl)cc1)Nc1nnc(-c2ccc(F)s2)n1-c1ccccc1OC(F)F` [Example 244.0, 2-(4-chlorophenyl)-N-(4-(2-(difluoromethoxy)phenyl)-5-(5-fluoro-2-thiophenyl)-4H-1,2,4-triazol-3-yl)ethanesulfonamide], the EC50 was 21 nM.
Molecule “(1R,2S)-N-(4-(2,6-dimethoxyphenyl)-5-(1-methyl-1H-pyrazol-3-yl)-4H-1,2,4-triazol-3-yl)-1-(5-fluoro-2-pyridinyl)-1-hydroxy-2-propanesulfonamide and (1S,2R)-N-(4-(2,6-dimethoxyphenyl)-5-(1-methyl-1H-pyrazol-3-yl)-4H-1,2,4-triazol-3-yl)-1-(5-fluoro-2-pyridinyl)-1-hydroxy-2-propanesulfonamide [Example 25.0]” has an EC50 of 15 nM.
`COc1ncnc(OC)c1-n1c(NS(=O)(=O)[C@@H](C)[C@H](OC)c2ncc(Cl)cn2)nnc1-c1cnn2ccccc12` [Example 439.0, (1R,2S)-1-(5-chloropyrimidin-2-yl)-N-(4-(4,6-dimethoxypyrimidin-5-yl)-5-(pyrazolo[1,5-a]pyridin-3-yl)-4H-1,2,4-triazol-3-yl)-1-methoxypropane-2-sulfonamide] was tested, and the EC50 was 0.82 nM.
With `CCn1ccc(-c2nnc(NS(=O)(=O)[C@@H](C)[C@H](OC)c3ncc(F)cn3)n2-c2c(OC)cccc2OC)n1` [Example 134.0, (1R,2S)-N-(4-(2,6-Dimethoxyphenyl)-5-(1-ethyl-1H-pyrazol-3-yl)-4H-1,2,4-triazol-3-yl)-1-(5-fluoro-2-pyrimidinyl)-1-methoxy-2-propanesulfonamide] the EC50 was 1.2 nM.
`COc1cccc(OC)c1-n1c(NS(=O)(=O)CCc2ccc(Cl)cc2)nnc1-c1ncc(Cl)s1` [Example 144.0, 2-(4-chlorophenyl)-N-(5-(5-chlorothiazol-2-yl)-4-(2,6-dimethoxyphenyl)-4H-1,2,4-triazol-3-yl)ethanesulfonamide] gave an EC50 of 330 nM.
`COc1cccc(OC)c1-n1c(NS(=O)(=O)[C@@H](C)[C@H](C)c2ncc(C)cn2)nnc1-c1noc2ccccc12` [Example 77.0, (2S,3R)-N-(5-(benzo[d]isoxazol-3-yl)-4-(2,6-dimethoxyphenyl)-4H-1,2,4-triazol-3-yl)-3-(5-methylpyrimidin-2-yl)butane-2-sulfonamide] was tested, and the EC50 was 4.1 nM.
`COc1ncnc(OC)c1-n1c(NS(=O)(=O)[C@@H](C)[C@H](OC)c2ncc(Cl)cn2)nnc1-c1noc2ccccc12` [Example 420.0, (1R,2S)-N-(5-(benzo[d]isoxazol-3-yl)-4-(4,6-dimethoxypyrimidin-5-yl)-4H-1,2,4-triazol-3-yl)-1-(5-chloropyrimidin-2-yl)-1-methoxypropane-2-sulfonamide] showed an EC50 of 27 nM.
